The subject of one data set is Apis mellifera. To be noted: acute; duration: 48 hours; oral; unspecified; mortality.
The test system of another data set is Pimephales promelas. Particulars: chronic/long-term; duration: 35 days; body weight.
In another data set the test system is Daphnia magna. To be noted: chronic/long-term; duration: 21 days; reproduction.
Another data set has as its system Cyprinodon variegatus. To be noted: acute; duration: 96 hours; mortality.
Another data set concerns Colinus virginianus. To be noted: for LD50: acute, oral, mortality.
Another data set has as its system Canidae. Particulars: oral, M/F, Dog Other, hematological.
Another data set has as its system Typhlodromus pyri. Briefly: LR50; higher = less toxic. Particulars: chronic/long-term; duration: 14 days; mortality.
The subject of a further data set is Aphidius rhopalosiphi. Briefly: LR50; higher = less toxic. To be noted: acute; duration: 14 days; mortality.

The results in this text go back to EPA's ToxValDB 9.5 (doi:10.2903/j.efsa.2013.3298).

Converted amounts (≈) assume the structure as drawn.

By NOAEL is commonly meant the highest dose or exposure tested at which no adverse effect was seen. As to `Cc1cc(C(F)(C(F)(F)F)C(F)(F)F)ccc1NC(=O)c1cccc(I)c1C(=O)NC(C)(C)CS(C)(=O)=O` [Flubendiamide], the LC50 is 1.88 µg/mL (≈ 2.75 µM) in the data set on Bibionidae (acute, duration: 48 hours, mortality); > 1000 mg/kg in the data set with Tagia sp. (acute, duration: 14 days, mortality); > 0.0298 µg/mL in the data set with Cyprinodon variegatus. Also, the NOEC was found to be 35 µg/L in the data set on Bibionidae (chronic/long-term, duration: 28 days, development); 1000 mg/kg in the data set on Tagia sp. (chronic/long-term, duration: 56 days, reproduction); 60.2 µg/L in the data set with Pimephales promelas; 0.4 µg/L in the data set with Daphnia magna. The LD50 was > 200 µg/piece in the data set on Apis mellifera; > 1020 mg/kg-day with Anas platyrhynchos (short-term, oral, feed, mortality); > 2000 mg/kg in the data set with Rattus norvegicus (acute, oral, M/F, mortality); > 1080 mg/kg-day in the data set with Colinus virginianus (diet); > 2000 mg/kg in the data set on Colinus virginianus. Besides, the NOEL in the data set on Anas platyrhynchos (reproductive, reproduction) was found to be 26 mg/kg-day; in the data set on Colinus virginianus (reproduction developmental, reproduction), 10.2 mg/kg-day. Also, the NOAEL in the data set on Rattus norvegicus (chronic, M, hematological) came to 1.7 mg/kg-day; with Rattus norvegicus (developmental, development), 10 mg/kg-day; in the data set with Rattus norvegicus (reproduction developmental, F, reproduction), 3.68 mg/kg-day; in the data set with Canidae (chronic, duration: 1 years), 2.21 mg/kg-day; in the data set on Canidae (subchronic, duration: 90 days), 2.6 mg/kg-day. The LR50 in the data set on Typhlodromus pyri and with Aphidius rhopalosiphi was > 675 g/ha in each case.
